In article PMC12195695, “Multifaceted Biological Activity of Rutin, Quercetin, and Quercetin’s Glucosides” (Molecules, 2025):
Values joined by “and” are separate entries in the source; they are usually repeats but may differ in a detail not shown here. Identical values can stand only once. Counter-ions that a name gives are not always drawn. Like-named read-outs stand apart in the source and are kept apart here. Marks after values point to notes of the source that are not given here.

Tests used:
[1] = tested on: advanced glycation endproduct (AGE) formation in BSA/glucose model system; assay: Inhibition of AGE formation, BSA/glucose model system; assay type: biochemical; conditions: fluorescence, linear regression, read-out: IC50 against AGE formation, BSA/Glucose Model System
Procedure: (§1) The positive control aminoguanidine and standards of rutin, quercetin, and quercetin’s glucosides were dissolved in DMSO and then in a phosphate buffer. The inhibitory activity against the formation of AGEs was analyzed in BSA/glucose and BSA/MGO model systems, as reported by Thornalley, and the fluorescent intensity was measured. The percentage of inhibition of AGEs was calculated from the obtained fluorescence of the test solution with or without inhibitors.

[2] = tested on: advanced glycation endproduct (AGE) formation in BSA/MGO model system; assay: Inhibition of AGE formation, BSA/MGO model system; assay type: biochemical; conditions: for IC50: BSA/MGO, fluorescence, linear regression, read-out: IC50 against AGE formation, BSA/MGO Model System; for anti-AGE activity higher in comparison to Ru / anti-AGE activity higher in relation to AG: BSA/MGO model system
Procedure: as §1

[3] = Cyclic voltammetry: oxidation potential and antioxidant activity vs Trolox; assay type: physicochemical; conditions: vs. Ag/AgCl, 50 mM acetate-acetic buffer (pH 5.5) in 80% methanol, scan rate 100 mV s^-1, n = 6
[4] = molecular target: T1, angiotensin-converting enzymes (ACEs) from porcine kidneys (EC 3.4.15.1) (Sus scrofa, UniProt F1RRW5); assay: biochemical
T1 construct: angiotensin-converting enzymes (ACEs) from porcine kidneys (EC 3.4.15.1); purchased Sigma (Sigma Chemical Company, Saint Louis, MO, USA); host or cells: porcine kidney
T1 sequence (F1RRW5 34-1309): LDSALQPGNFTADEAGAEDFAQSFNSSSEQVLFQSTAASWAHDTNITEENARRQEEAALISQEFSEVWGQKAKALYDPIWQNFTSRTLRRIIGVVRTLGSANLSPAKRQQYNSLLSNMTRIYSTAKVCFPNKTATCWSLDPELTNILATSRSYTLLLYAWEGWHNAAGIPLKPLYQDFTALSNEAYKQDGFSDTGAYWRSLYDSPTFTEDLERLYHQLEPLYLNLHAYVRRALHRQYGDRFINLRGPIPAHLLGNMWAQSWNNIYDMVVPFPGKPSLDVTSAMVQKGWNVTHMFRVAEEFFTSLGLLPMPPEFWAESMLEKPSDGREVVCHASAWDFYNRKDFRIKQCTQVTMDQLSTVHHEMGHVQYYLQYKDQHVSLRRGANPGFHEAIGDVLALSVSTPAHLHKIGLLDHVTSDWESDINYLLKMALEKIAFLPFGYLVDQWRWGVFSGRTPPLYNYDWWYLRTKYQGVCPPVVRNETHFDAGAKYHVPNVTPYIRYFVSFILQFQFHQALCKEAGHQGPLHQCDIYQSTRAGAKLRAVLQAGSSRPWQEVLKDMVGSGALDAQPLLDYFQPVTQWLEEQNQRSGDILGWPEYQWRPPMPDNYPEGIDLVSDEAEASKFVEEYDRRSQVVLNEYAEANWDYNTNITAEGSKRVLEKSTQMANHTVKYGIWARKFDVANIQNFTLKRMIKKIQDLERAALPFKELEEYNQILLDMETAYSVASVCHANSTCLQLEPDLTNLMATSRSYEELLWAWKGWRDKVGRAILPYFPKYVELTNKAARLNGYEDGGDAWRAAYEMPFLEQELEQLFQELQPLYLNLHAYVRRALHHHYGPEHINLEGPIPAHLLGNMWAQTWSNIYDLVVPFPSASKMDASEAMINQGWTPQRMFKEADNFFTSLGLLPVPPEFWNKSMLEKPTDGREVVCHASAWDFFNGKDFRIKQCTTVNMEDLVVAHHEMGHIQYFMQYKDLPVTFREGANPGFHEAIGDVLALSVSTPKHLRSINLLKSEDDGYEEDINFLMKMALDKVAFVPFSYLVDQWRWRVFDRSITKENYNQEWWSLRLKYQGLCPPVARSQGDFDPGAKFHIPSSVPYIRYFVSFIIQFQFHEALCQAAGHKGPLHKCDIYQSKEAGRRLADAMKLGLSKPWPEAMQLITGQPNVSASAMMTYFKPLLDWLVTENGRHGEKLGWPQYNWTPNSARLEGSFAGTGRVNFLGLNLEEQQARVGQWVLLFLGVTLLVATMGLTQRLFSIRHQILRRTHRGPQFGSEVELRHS
Procedure: Standards of rutin, quercetin, and quercetin’s glucosides were dissolved in 80% methanol. Each standard was diluted to various concentrations using deionized water to determine its ACE inhibitory activity, expressed as an IC50 value. The ACE stock solution was prepared by dissolving enzyme in glycerol at 50% with Buffer A (protein concentration approximately 150 μg/mL), whereas the working solution was prepared by the dilution of the stock solution with Buffer B to make a protein concentration of approximately 7.5 μg/mL. The substrate stock solution was prepared by dissolving the whole content (50 mg) of Abz-Gly-Phe (NO2)-Pro (Bachem) in 10.33 mL of Buffer C (concentration approximately 10 mM), while the working solution was prepared by the dilution of the substrate stock solution with Buffer C to make a final Abz-Gly-Phe (NO2)-Pro concentration of approximately 0.45 mM. […] The angiotensin-converting enzyme (ACE) inhibitory activity assay was conducted according to the method of Sentandreu and Toldra. The fluorescence generated was measured using a Tecan Infinite M1000 PRO multiscan microplate fluorometer (TK Biotech, Warsaw, Poland). To calculate the % of inhibition of ACE, the following equation was used: […] = 100 − (ΔRFUsample ∗ 100/ΔRFUnegative control) where ΔRFU = RFUat time 30 − RFUat time 0.
The IC50 value, indicating the sample concentration at a 50% inhibition of ACE activity, was determined using linear regression analysis of logarithmic plots. At least 3 replicates for each standard solution were conducted. Results were expressed as IC50 values.

[5] = Cyclic voltammetry: oxidation potential and antioxidant activity vs Trolox; assay type: physicochemical; conditions: for Antioxidant power class based on first oxidation potential: classification according to Blasco et al. [51]; for Antioxidant Activity: cyclic voltammetry, area under anodic wave, 0.1 mM compound, Trolox regression, n = 6
Procedure: A galvanostat G 750 (Gamry Ins., Warminster, PA, USA) with a conventional three-electrode system was used for the cyclic voltammetric experiments, with Ru, Q, Ru, Q4′G, Q3G, and Q34′G (0.1 mM in 80% methanol) or Trolox solutions (0.1–2.5 mM) mixed with 0.2 M sodium acetate–acetic buffer (pH 4.5 in 80% methanol) at a ratio of 1:1 (v/v), as has previously been described in detail. The cyclic voltammograms were acquired in the range of −100 to 1300 mV at a scanning rate of 100 mV s^−1.

ACE = tested on: ACE; design: method as in earlier work; conditions: same fluorimetric method; ref 30 (Guerrero et al.); read-out: IC50 for ACE inhibition (literature); cited from earlier work

SMILES	IC50 [1] [µM]	IC50 [2] [µM]	First Oxidation Potential [3]	IC50 [4] [µM]	Antioxidant power class based on first oxidation potential [5]	Antioxidant Activity [5]	anti-AGE activity higher in comparison to Ru [2] [%]	anti-AGE activity higher in relation to AG [2] [%]	IC50 ([4]; IC50 for ACE inhibition, concentration range 1.0-0.01 mM, linear regression, n = 6) [µM]	IC50 (ACE) [µM]
N=C(N)NN [AG, aminoguanidine hydrochloride, reference compound]	432 ± 38	531 ± 28								
O=c1c(O[C@@H]2O[C@H](CO)[C@@H](O)[C@H](O)[C@H]2O)c(-c2ccc(O)c(O)c2)oc2cc(O)cc(O)c12 [Compound Q3G, quercetin-3-O-β-glucoside]	47 ± 3	389 ± 22	390 mV and 390 ± 4 ^d mV	135.2 ± 1.04	intermediate potentials (compounds with intermediate potentials (0.3 V < Ep < 0.8 V))	2.59 ± 0.04 ^b mM Trolox	6	37		
N[C@@H](CCC(=O)N[C@@H](CS)C(=O)NCC(=O)O)C(=O)O [GSH, reduced glutathione, reference compound]									41.7	
O=c1c(O[C@@H]2O[C@H](CO)[C@@H](O)[C@H](O)[C@H]2O)c(-c2ccc(O[C@@H]3O[C@H](CO)[C@@H](O)[C@H](O)[C@H]3O)c(O)c2)oc2cc(O)cc(O)c12 [Q3,4′G, quercetin-3,4′-di-O-β-glucoside]	89 ± 5	324 ± 19	800 mV and 800 ± 7 ^a mV	115 ± 1.25	low antioxidant power (a compound with a low antioxidant power (0.8 V < Ep < 1.3 V))	1.07 ± 0.05 ^d mM Trolox	27	64		
O=c1c(O)c(-c2ccc(O[C@@H]3O[C@H](CO)[C@@H](O)[C@H](O)[C@H]3O)c(O)c2)oc2cc(O)cc(O)c12 [Q4′G, quercetin-4′-O-β-glucoside]	259 ± 16	370 ± 23	482 mV and 482 ± 3 ^b mV	143 ± 1.44	intermediate potentials (compounds with intermediate potentials (0.3 V < Ep < 0.8 V))	1.99 ± 0.09 ^c mM Trolox	11	44		
O=c1c(O)c(-c2ccc(O)c(O)c2)oc2cc(O)cc(O)c12 [Q, quercetin]	243 ± 12	466 ± 17	310 mV and 310 ± 4 ^e mV	59.29 ± 0.48		3.92 ± 0.20 ^a mM Trolox				43
C[C@@H]1O[C@@H](OC[C@H]2O[C@@H](Oc3c(-c4ccc(O)c(O)c4)oc4cc(O)cc(O)c4c3=O)[C@H](O)[C@@H](O)[C@@H]2O)[C@H](O)[C@H](O)[C@H]1O [Ru, quercetin-3-O-rutinoside]	197 ± 8	413 ± 24	410 mV and 410 ± 5 ^c mV	121 ± 1.56	intermediate potentials (compounds with intermediate potentials (0.3 V < Ep < 0.8 V))	2.04 ± 0.07 ^c mM Trolox				64
